Experimental data published in US20240182407A1, “QUINOLINE COMPOUND SALT OR CRYSTAL FORM, PREPARATION METHOD THEREFOR, AND APPLICATION THEREOF” (Nanjing Zenshine Pharmaceuticals Co., Ltd., priority 2021, published 2024).

Tests used:
PI3Kδ (p110δ/p85a) = biological target: T1, PI3Kδ (p110δ/p85a) (Homo sapiens, UniProt O00329); test: ADP-Glo kinase inhibition, PI3Kδ; conditions: read-out: IC50 PI3Kδ Biochemical
T1 construct: purchased Invitrogen PV6452
Experimental: (§1) In Example 7, the inhibitory effects of Sample 6 prepared in Example 6 above on kinases PI3Kα, PI3Kβ, PI3Kγ and PI3Kδ were tested.
(§2) The kinases used in the experiment were respectively purchased from: • PI3Kα (p110α/p85α), purchased from Invitrogen, under Cat. No. PV4788; • PI3Kβ (p110β), purchased from eurofins, under Cat. No. 14-603M; • PI3Kδ (p110δ/p85a), purchased from Invitrogen, under Cat. No. PV6452; and • PI3Kγ (p110γ), purchased from Invitrogen, under Cat. No. PR8641C. • Firstly, a 1× kinase buffer solution was prepared, which comprised: • 50 mM HEPES, pH 7.5 • 3 mM MgCl2 • 1 mM EGTA • 100 mM NaCl • 0.03% CHAPS • 2 mM DTT
On kinase PI3Kδ, the final detection concentration of the compound was 1 μM. 100× concentration was prepared, i.e., 100 μM. 90 μL of 100% DMSO was added to the second well in row B on a 96-well plate, 10 μL of a 1000 μM compound solution was then taken from the second well in row A, and 3-fold serial dilution was made to obtain a total of 10 concentrations.
(§3) 50 μL of 100% DMSO was transferred to two empty wells as Max well and Min well, respectively.
50 nL of the compound was transferred into a 384-well plate using ECHO550. […]
(§4) Finally, the chemiluminescence values were read from Envision 2104 Multi-label Reader and subjected to curve fitting, and IC50 was calculated.

PI3Kγ (p110γ) = biological target: T2, PI3Kγ (p110γ) (Homo sapiens, UniProt P48736); test: ADP-Glo kinase inhibition, PI3Kγ; conditions: read-out: IC50 PI3Kγ Biochemical
T2 construct: purchased Invitrogen PR8641C
Experimental: as §1, §2
On kinases PI3Kα, PI3Kβ and PI3Kγ, the final detection concentration of the compound was 10 μM. 100× concentration was prepared, i.e., 1000 μM. 90 μL of 100% DMSO was added to the second well in row A on a 96-well plate, 10 μL of a 10 mM compound solution was then added, and 3-fold serial dilution was made to obtain a total of 10 concentrations.
as §3
50 nL of the compound was transferred into a 384-well plate using ECHO550.
Preparation of 2× kinase solution: the kinase was added to a 1× kinase buffer to prepare a 2× enzyme solution. […]
as §4

mouse breast cancer 4T1 = test: Mouse breast cancer 4T1 subcutaneous transplantation tumor model; assay type: in vivo
Source text: WT cell subcutaneous transplantation tumor model.

T1 sequence (O00329 whole entry): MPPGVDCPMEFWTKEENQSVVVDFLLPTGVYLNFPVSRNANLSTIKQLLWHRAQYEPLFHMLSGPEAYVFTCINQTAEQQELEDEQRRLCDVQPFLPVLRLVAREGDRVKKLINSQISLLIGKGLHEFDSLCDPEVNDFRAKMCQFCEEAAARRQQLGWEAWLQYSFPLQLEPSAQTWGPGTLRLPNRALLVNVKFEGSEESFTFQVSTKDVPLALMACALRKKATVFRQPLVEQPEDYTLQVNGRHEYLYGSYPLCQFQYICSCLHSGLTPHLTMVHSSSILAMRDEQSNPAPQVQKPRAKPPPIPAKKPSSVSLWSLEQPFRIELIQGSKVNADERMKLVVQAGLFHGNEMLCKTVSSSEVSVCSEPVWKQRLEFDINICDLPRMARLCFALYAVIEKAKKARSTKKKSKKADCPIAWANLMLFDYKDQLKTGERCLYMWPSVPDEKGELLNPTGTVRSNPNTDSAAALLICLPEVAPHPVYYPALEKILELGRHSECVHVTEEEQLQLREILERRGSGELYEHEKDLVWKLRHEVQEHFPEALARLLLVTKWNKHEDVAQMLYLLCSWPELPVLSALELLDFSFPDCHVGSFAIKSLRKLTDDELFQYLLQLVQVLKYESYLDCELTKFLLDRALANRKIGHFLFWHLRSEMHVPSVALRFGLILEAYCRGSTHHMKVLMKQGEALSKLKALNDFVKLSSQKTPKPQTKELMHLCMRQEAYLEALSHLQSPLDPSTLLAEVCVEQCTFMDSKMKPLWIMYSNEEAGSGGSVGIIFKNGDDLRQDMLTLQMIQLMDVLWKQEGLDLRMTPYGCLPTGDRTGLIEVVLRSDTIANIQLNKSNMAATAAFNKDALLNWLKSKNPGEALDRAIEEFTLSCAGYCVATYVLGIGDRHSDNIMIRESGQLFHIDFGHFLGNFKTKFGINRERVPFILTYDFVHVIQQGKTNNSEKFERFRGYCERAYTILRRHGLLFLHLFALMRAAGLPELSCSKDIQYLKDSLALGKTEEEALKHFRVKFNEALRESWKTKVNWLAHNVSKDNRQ
T1 sequence (P27986 whole entry partner): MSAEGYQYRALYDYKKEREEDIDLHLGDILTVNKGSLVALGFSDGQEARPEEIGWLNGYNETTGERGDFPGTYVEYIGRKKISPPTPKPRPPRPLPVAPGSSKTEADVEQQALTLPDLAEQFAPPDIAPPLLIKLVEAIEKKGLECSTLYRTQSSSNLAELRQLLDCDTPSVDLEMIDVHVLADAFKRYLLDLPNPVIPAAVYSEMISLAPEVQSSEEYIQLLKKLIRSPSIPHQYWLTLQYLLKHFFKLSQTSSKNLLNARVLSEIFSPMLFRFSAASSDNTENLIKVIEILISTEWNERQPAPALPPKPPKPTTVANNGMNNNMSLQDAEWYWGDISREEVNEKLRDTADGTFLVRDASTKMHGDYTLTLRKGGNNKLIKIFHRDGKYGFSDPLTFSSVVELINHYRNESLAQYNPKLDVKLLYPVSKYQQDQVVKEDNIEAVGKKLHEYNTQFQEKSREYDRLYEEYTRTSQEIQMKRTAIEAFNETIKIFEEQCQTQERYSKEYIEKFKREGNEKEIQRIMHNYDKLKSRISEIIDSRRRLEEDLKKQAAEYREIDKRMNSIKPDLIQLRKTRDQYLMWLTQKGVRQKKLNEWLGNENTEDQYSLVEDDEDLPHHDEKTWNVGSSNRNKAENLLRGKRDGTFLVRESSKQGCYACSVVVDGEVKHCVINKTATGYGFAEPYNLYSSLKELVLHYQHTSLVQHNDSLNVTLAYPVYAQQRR
T2 sequence (P48736 whole entry): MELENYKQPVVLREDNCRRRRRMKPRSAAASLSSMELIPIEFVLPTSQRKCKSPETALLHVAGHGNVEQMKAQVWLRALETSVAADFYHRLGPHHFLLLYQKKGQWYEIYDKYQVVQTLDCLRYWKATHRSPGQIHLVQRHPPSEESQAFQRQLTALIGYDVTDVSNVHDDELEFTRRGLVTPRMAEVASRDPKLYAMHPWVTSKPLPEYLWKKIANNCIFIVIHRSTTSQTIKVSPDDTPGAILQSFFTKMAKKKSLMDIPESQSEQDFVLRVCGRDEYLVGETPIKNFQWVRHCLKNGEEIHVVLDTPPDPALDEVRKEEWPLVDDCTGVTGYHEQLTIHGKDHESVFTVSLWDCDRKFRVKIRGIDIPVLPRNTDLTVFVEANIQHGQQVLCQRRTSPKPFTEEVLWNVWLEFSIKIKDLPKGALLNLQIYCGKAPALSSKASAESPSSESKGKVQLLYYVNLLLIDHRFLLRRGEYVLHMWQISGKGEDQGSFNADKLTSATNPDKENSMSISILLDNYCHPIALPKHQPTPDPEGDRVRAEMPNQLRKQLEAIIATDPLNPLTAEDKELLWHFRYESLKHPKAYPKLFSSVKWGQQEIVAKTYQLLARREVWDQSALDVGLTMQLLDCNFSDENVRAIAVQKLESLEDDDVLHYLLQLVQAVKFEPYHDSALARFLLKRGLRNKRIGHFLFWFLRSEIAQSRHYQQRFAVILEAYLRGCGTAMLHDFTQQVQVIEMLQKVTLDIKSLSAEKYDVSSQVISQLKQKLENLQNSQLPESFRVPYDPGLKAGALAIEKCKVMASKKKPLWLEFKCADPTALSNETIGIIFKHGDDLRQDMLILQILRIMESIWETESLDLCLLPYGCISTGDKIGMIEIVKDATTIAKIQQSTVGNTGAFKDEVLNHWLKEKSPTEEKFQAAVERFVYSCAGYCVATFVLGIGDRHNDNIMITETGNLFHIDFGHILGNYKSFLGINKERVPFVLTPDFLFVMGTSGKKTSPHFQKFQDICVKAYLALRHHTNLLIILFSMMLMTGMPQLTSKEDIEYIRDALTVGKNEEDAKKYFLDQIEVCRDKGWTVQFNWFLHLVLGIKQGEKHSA

- IC50 (PI3Kδ (p110δ/p85a)): 0.49 nM
- IC50 (PI3Kγ (p110γ)): 4.8 nM
SMILES: C[C@H](Nc1nc(N)nc(N)c1C#N)c1cc2ccc(F)cc2nc1-c1ccccn1 [p-toluenesulfonate of Compound A]
- effect on tumor volume growth (mouse breast cancer 4T1): significant inhibitory effect
